Test results reported in US20260364215A1, “Radiopharmaceutical Compositions Targeting Ephrin Type-A Receptor 2 and Uses Thereof” (PeptiDream Inc., priority 2022, published 2026).
Read-outs that look alike come from different tables or passages of the source. Numbered stars: 1 amine (or outer) side, 2 acyl side, 3 side chain; on linkers, the order of the positions; unused ones are H or OH. Bridge positions count the residues as written; N and C are the ends. Square brackets hold non-standard residues; d marks the D form. Side chains are listed from the residue outwards. Peptide text beside a SMILES is read from it. * marks the point of attachment. DOTA(Lu) = O=C1CN2CCN3CCN(CC(=O)*)CCN(CC2)CC(=O)[O][Lu]([O]1)[O]C(=O)C3; NH(1-deoxy-D-glucityl) = OC[C@@H](O)[C@@H](O)[C@H](O)[C@@H](O)CN*; DOTA = O=C(O)CN1CCN(CC(=O)O)CCN(CC(=O)*)CCN(CC(=O)O)CC1; Trp(1-Me,7-Cl) = Cn1cc(C[C@H](N)C(=O)O)c2cccc(Cl)c21; dPhe(3-CONH2) = NC(=O)c1cccc(C[C@@H](N)C(=O)O)c1; NMePhe(3-CN) = CN[C@@H](Cc1cccc(C#N)c1)C(=O)O; Piperazinyl(4-CH2COOH) = O=C(O)CN1CCN(*)CC1; Trp(1-Me) = Cn1cc(C[C@H](N)C(=O)O)c2ccccc21; NMemTyr = CN[C@@H](Cc1cccc(O)c1)C(=O)O; NMe3Pal = CN[C@@H](Cc1cccnc1)C(=O)O; Gly(cBu) = N[C@H](C(=O)O)C1CCC1; NMeE = CN[C@@H](CCC(=O)O)C(=O)O; Aad = N[C@@H](CCCC(=O)O)C(=O)O; NMeN = CN[C@@H](CC(N)=O)C(=O)O; CO = O=C([*:1])[*:2]

Target: T1, Recombinant Human EphA2 Fc Protein (Homo sapiens, UniProt P29317)
T1 construct: purchased Elabscience
T1 sequence (P29317 24-534 limits assumed): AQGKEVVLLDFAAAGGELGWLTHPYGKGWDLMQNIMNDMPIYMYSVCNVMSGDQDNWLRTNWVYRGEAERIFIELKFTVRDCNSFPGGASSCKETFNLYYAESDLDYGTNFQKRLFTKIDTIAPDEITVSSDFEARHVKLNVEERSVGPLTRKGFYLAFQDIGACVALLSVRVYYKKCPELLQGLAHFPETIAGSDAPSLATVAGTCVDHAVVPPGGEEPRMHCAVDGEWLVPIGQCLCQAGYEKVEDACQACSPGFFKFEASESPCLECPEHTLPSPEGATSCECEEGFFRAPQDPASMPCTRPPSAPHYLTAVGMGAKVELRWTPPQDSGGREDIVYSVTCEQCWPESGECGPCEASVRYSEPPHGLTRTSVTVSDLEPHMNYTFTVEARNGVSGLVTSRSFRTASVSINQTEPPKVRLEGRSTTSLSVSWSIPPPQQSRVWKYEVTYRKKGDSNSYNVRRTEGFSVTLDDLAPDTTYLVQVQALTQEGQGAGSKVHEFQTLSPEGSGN
Assay: Interaction analysis (kinetics, KD) of peptides and conjugates against EphA2 by SPR, Biacore T200, single-cycle kinetics (Examples B15 and B22)
Type: binding
Procedure: Example B15. Interaction Analysis by SPR was Performed Using Biacore (Cytiva)
SPR assay was performed using Biacore T200 (Cytiva).
The HBS-P+ buffer (10 mM HEPES (pH7.4), 150 mM NaCl, 0.05% (v/v) Surfactant P20) containing 1% DMSO was used as running buffer. Recombinant Human EphA2 Fc Protein (Fc tag, Elabscience) was captured by Human Antibody Capture kit (Cytiva). Peptide samples in DMSO were diluted with running buffer, and prepared five serial dilutions. Using these serial dilutions, kinetics of peptides against EphA2 was measured at a flow rate of […] at 25 °C. The method adopted for sample measurement was a single-cycle kinetics method. The analysis was conducted using the evaluation software 3.0 provided with Biacore T200. Kinetics fitting was done on the difference data obtained by subtracting the baseline data from sample measurement data. KD values were calculated based on the association rate constant (ka) and dissociation rate constant (kd).
Example B22: Interaction Analysis of Conjugates by SPR was Performed Using Biacore (Cytiva)
SPR assay was performed using Biacore T200 (Cytiva) according to Example B15.

[1] = peptides, Biacore T200, 25 °C, Table B12, read-out: SPR Kd

SMILES	Kd [nM]	further results
C[C@@H](O)[C@@H]1NC(=O)[C@H](Cc2cn(C)c3ccccc23)NC(=O)[C@H](CCC(=O)NC[C@H](O)[C@@H](O)[C@H](O)[C@H](O)CO)NC(=O)[C@H](Cc2cn(C)c3c(Cl)cccc23)NC(=O)[C@H](Cc2cccnc2)N(C)C(=O)[C@H](CCCC(N)=O)NC(=O)[C@H](C2CCC2)NC(=O)[C@H](CC(N)=O)NC(=O)[C@H](Cc2cccnc2)N(C)C(=O)[C@@H](Cc2cccc(C(N)=O)c2)NC(=O)CSC[C@@H](C(N)=O)NC(=O)[C@H](CCCC(N)=O)NC1=O [PDC_EphA2-00019437] ({CH2CO}-[dPhe(3-CONH2)][NMe3Pal]N[Gly(cBu)][Aad](NH2)[NMe3Pal][Trp(1-Me,7-Cl)]E(NH(1-deoxy-D-glucityl))[Trp(1-Me)]T[Aad](NH2)C-NH2; thioether N-12)	–	Kd [1]: < 1 nM
C[C@@H](O)[C@@H]1NC(=O)[C@H](Cc2cn(C)c3ccccc23)NC(=O)[C@H](CCCCNC(=O)N2CCN(CC(=O)O)CC2)NC(=O)[C@H](Cc2cn(C)c3c(Cl)cccc23)NC(=O)[C@H](Cc2cccnc2)N(C)C(=O)[C@H](CCCC(N)=O)NC(=O)[C@H](C2CCC2)NC(=O)[C@H](CC(N)=O)NC(=O)[C@H](Cc2cccnc2)N(C)C(=O)[C@@H](Cc2cccc(C(N)=O)c2)NC(=O)CSC[C@@H](C(N)=O)NC(=O)[C@H](CCCC(N)=O)NC1=O [PDC_EphA2-00019438] ({CH2CO}-[dPhe(3-CONH2)][NMe3Pal]N[Gly(cBu)][Aad](NH2)[NMe3Pal][Trp(1-Me,7-Cl)]K([CO-Piperazinyl(4-CH2COOH)])[Trp(1-Me)]T[Aad](NH2)C-NH2; thioether N-12)	–	Kd [1]: < 1 nM
C[C@@H](O)[C@@H]1NC(=O)[C@H](Cc2cn(C)c3ccccc23)NC(=O)[C@H](CCC(=O)NC[C@H](O)[C@@H](O)[C@H](O)[C@H](O)CO)NC(=O)[C@H](Cc2cn(C)c3c(Cl)cccc23)NC(=O)[C@H](CC(N)=O)N(C)C(=O)[C@H](CCCC(N)=O)NC(=O)[C@H](C2CCC2)NC(=O)[C@H](CC(N)=O)NC(=O)[C@H](Cc2cccnc2)N(C)C(=O)[C@@H](Cc2cccc(C(N)=O)c2)NC(=O)CSC[C@@H](C(=O)N[C@H](CCCCNC(=O)CN2CCN3CCN4CCN(CC2)CC(=O)[O][Lu]([O]C(=O)C3)[O]C(=O)C4)C(N)=O)NC(=O)[C@H](CCCC(N)=O)NC1=O [PDC_EphA2-00022593-C302] ({CH2CO}-[dPhe(3-CONH2)][NMe3Pal]N[Gly(cBu)][Aad](NH2)[NMeN][Trp(1-Me,7-Cl)]E(NH(1-deoxy-D-glucityl))[Trp(1-Me)]T[Aad](NH2)C[dK](DOTA(Lu))-NH2; thioether N-12)	< 1	–
C[C@@H](O)[C@@H]1NC(=O)[C@H](Cc2cn(C)c3ccccc23)NC(=O)[C@H](CCC(=O)NC[C@H](O)[C@@H](O)[C@H](O)[C@H](O)CO)NC(=O)[C@H](Cc2cn(C)c3c(Cl)cccc23)NC(=O)[C@H](CC(N)=O)N(C)C(=O)[C@H](CCC(=O)NC[C@H](O)[C@@H](O)[C@H](O)[C@H](O)CO)NC(=O)[C@H](C2CCC2)NC(=O)[C@H](CC(N)=O)NC(=O)[C@H](Cc2cccnc2)N(C)C(=O)[C@@H](Cc2cccc(C(N)=O)c2)NC(=O)CSC[C@@H](C(=O)N[C@H](CCCCNC(=O)CN2CCN3CCN4CCN(CC2)CC(=O)[O][Lu]([O]C(=O)C3)[O]C(=O)C4)C(N)=O)NC(=O)[C@H](CCCC(N)=O)NC1=O [PDC_EphA2-00022594-C302] ({CH2CO}-[dPhe(3-CONH2)][NMe3Pal]N[Gly(cBu)]E(NH(1-deoxy-D-glucityl))[NMeN][Trp(1-Me,7-Cl)]E(NH(1-deoxy-D-glucityl))[Trp(1-Me)]T[Aad](NH2)C[dK](DOTA(Lu))-NH2; thioether N-12)	< 1	–
C[C@@H](O)[C@@H]1NC(=O)[C@H](Cc2cn(C)c3ccccc23)NC(=O)[C@H](CCC(=O)NC[C@H](O)[C@@H](O)[C@H](O)[C@H](O)CO)NC(=O)[C@H](Cc2cn(C)c3ccccc23)NC(=O)[C@H](CC(N)=O)N(C)C(=O)[C@H](CCCC(N)=O)NC(=O)[C@H](C2CCC2)NC(=O)[C@H](CC(N)=O)NC(=O)[C@H](Cc2cccnc2)N(C)C(=O)[C@@H](Cc2cccc(C(N)=O)c2)NC(=O)CSC[C@@H](C(=O)N[C@H](CCCCNC(=O)CN2CCN3CCN4CCN(CC2)CC(=O)[O][Lu]([O]C(=O)C3)[O]C(=O)C4)C(N)=O)NC(=O)[C@H](CCCC(N)=O)NC1=O [PDC_EphA2-00022595-C302] ({CH2CO}-[dPhe(3-CONH2)][NMe3Pal]N[Gly(cBu)][Aad](NH2)[NMeN][Trp(1-Me)]E(NH(1-deoxy-D-glucityl))[Trp(1-Me)]T[Aad](NH2)C[dK](DOTA(Lu))-NH2; thioether N-12)	< 1	–
C[C@@H](O)[C@@H]1NC(=O)[C@H](Cc2cn(C)c3ccccc23)NC(=O)[C@H](CCCCNC(=O)N2CCN(CC(=O)O)CC2)NC(=O)[C@H](Cc2cn(C)c3c(Cl)cccc23)NC(=O)[C@H](CCC(=O)O)N(C)C(=O)[C@H](CCCC(N)=O)NC(=O)[C@H](C2CCC2)NC(=O)[C@H](CC(N)=O)NC(=O)[C@H](Cc2cccc(C#N)c2)N(C)C(=O)[C@@H](Cc2cccc(C(N)=O)c2)NC(=O)CSC[C@@H](C(=O)N[C@H](CCCCNC(=O)CN2CCN3CCN4CCN(CC2)CC(=O)[O][Lu]([O]C(=O)C3)[O]C(=O)C4)C(N)=O)NC(=O)[C@H](CCCC(N)=O)NC1=O [PDC_EphA2-00022612-C302] ({CH2CO}-[dPhe(3-CONH2)][NMePhe(3-CN)]N[Gly(cBu)][Aad](NH2)[NMeE][Trp(1-Me,7-Cl)]K([CO-Piperazinyl(4-CH2COOH)])[Trp(1-Me)]T[Aad](NH2)C[dK](DOTA(Lu))-NH2; thioether N-12)	< 1	–
C[C@@H](O)[C@@H]1NC(=O)[C@H](Cc2cn(C)c3ccccc23)NC(=O)[C@H](CCCCNC(=O)N2CCN(CC(=O)O)CC2)NC(=O)[C@H](Cc2cn(C)c3c(Cl)cccc23)NC(=O)[C@H](CCC(=O)O)N(C)C(=O)[C@H](CCCC(N)=O)NC(=O)[C@H](C2CCC2)NC(=O)[C@H](CC(N)=O)NC(=O)[C@H](Cc2cccc(O)c2)N(C)C(=O)[C@@H](Cc2cccc(C(N)=O)c2)NC(=O)CSC[C@@H](C(=O)N[C@H](CCCCNC(=O)CN2CCN3CCN4CCN(CC2)CC(=O)[O][Lu]([O]C(=O)C3)[O]C(=O)C4)C(N)=O)NC(=O)[C@H](CCCC(N)=O)NC1=O [PDC_EphA2-00022613-C302] ({CH2CO}-[dPhe(3-CONH2)][NMemTyr]N[Gly(cBu)][Aad](NH2)[NMeE][Trp(1-Me,7-Cl)]K([CO-Piperazinyl(4-CH2COOH)])[Trp(1-Me)]T[Aad](NH2)C[dK](DOTA(Lu))-NH2; thioether N-12)	< 1	–
C[C@@H](O)[C@@H]1NC(=O)[C@H](Cc2cn(C)c3ccccc23)NC(=O)[C@H](CCC(=O)NC[C@H](O)[C@@H](O)[C@H](O)[C@H](O)CO)NC(=O)[C@H](Cc2cn(C)c3c(Cl)cccc23)NC(=O)[C@H](Cc2cccnc2)N(C)C(=O)[C@H](CCCC(N)=O)NC(=O)[C@H](C2CCC2)NC(=O)[C@H](CC(N)=O)NC(=O)[C@H](Cc2cccc(C#N)c2)N(C)C(=O)[C@@H](Cc2cccc(C(N)=O)c2)NC(=O)CSC[C@@H](C(=O)N[C@H](CCCCNC(=O)CN2CCN(CC(=O)O)CCN(CC(=O)O)CCN(CC(=O)O)CC2)C(N)=O)NC(=O)[C@H](CCCC(N)=O)NC1=O.[Lu+3] [PDC_EphA2-00022614-C302] ({CH2CO}-[dPhe(3-CONH2)][NMePhe(3-CN)]N[Gly(cBu)][Aad](NH2)[NMe3Pal][Trp(1-Me,7-Cl)]E(NH(1-deoxy-D-glucityl))[Trp(1-Me)]T[Aad](NH2)C[dK](DOTA)-NH2; thioether N-12)	–	Kd (conjugates, Biacore T200 according to Example B15, Table B16, read-out: SPR Kd): < 1 nM
